These compounds were tested against T1, human TLR7 (hTLR7) (Homo sapiens, UniProt Q9NYK1) (assay: Antagonist screen, hTLR7-NFκB-293 cells, NF-κB-luciferase reporter, with EC50 of R848). Conditions: compound at 0.5, 5, 50 μg/ml; EC50 concentration of R848; 16 h; NF-κB-luciferase.
T1 construct: expressed in transfected cells
T1 sequence (Q9NYK1 27-1049): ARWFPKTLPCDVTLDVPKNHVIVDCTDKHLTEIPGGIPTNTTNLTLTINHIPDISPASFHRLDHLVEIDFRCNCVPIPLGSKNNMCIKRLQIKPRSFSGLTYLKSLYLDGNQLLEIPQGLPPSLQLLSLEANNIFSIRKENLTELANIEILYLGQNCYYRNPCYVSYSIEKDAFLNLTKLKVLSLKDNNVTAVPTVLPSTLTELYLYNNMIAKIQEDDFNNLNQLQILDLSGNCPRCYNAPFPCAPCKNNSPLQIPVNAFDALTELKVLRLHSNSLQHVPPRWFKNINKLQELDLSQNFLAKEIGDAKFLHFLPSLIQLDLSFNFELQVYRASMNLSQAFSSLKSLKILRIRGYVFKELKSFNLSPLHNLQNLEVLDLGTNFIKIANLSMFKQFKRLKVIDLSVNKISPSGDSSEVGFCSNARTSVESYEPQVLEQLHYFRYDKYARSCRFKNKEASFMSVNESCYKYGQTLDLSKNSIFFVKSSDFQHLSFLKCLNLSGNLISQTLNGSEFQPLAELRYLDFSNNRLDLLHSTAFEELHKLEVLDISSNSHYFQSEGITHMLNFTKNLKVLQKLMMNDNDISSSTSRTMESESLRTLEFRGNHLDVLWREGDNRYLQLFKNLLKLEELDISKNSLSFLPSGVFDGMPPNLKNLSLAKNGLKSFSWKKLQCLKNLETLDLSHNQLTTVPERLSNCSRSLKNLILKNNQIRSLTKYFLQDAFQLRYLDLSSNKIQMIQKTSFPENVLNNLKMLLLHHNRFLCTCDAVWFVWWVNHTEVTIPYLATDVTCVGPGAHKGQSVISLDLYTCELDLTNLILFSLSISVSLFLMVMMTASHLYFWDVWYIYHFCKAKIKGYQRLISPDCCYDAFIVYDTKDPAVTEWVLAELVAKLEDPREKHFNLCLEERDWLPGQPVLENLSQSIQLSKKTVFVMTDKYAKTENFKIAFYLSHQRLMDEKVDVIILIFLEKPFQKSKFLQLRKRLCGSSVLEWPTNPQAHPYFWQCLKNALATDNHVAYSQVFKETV
Type: cell-based
Protocol: The method is described in greater detail as follows. The cells for each individual cell clone (hTLR3-NFκB-293, hTLR7-NFκB-293, hTLR8-NFκB-293 and hTLR9-NFκB-293) were counted and seeded one day before the stimulation at 1.5×10^4 cells per well in 96-well cell culture plates. To become adherent the cells were incubated after seeding overnight at 37° C. in 5% CO2 humidified air.
The screen for each compound was performed at the same time for all of the receptors TLR3, TLR7, TLR8 and TLR9. Up to fifteen test compounds, each assayed in duplicate at each of three different final concentrations (0.5 μg/ml, 5 μg/ml, and 50 μg/ml), were used for 16 h cell stimulation on a single multiwell culture plate. A 4× final concentration master plate was created to prepare the different test compounds before they were added to the cells.
Controls were added as duplicates individually for each cell clone on the cell culture plate. Positive controls were used as follows (final concentrations): 50 μg/ml poly(I:C) for hTLR3-NFκB-293; 8 μM resiquimod (R848) for hTLR7-NFκB-293; 30 μM R848 for hTLR8-NFκB-293; and 2.5 μM CpG-ODN 2006 for hTLR9-NFκB-293. Media alone was used as negative control. After addition of controls and small molecules, the cell clones were additionally stimulated with the EC50 concentration of the appropriate receptor-specific ligand.
The mean value of wells H2 and H5 (each with cells and EC50 concentration of the appropriate receptor-specific ligand) divided by the mean of wells H3 and H6 (each with cells alone) yielded the baseline response (i.e., fold induction of luciferase activity) to EC50 concentration of the appropriate receptor-specific ligand.
After 16 h stimulation the supernatant was removed and the cells treated with lysis buffer and stored at −80° C. before measuring.
For each screen result a graphical documentation was performed.
The baseline result (measured with addition of the EC50 concentration of the receptor-specific ligand) for each cell culture plate was measured as described above. Antagonistic effects were measured by down regulation compared to the baseline. Antagonists were scored as follows: • 13: compounds for which there was clear down regulation at 0.5 μg/ml, 5 μg/ml, and 50 μg/ml; • 12: compounds for which there was clear down regulation at 5 μg/ml and 50 μg/ml; • 11: compounds for which there was clear down regulation only at 50 μg/ml; • —: compounds for which there was no clear down regulation even at 50 μg/ml. Agonists
Results were expressed as fold induction over baseline luciferase activity measured in the absence of R848. […] Additional screening was performed in like manner using additional small molecules selected from another library or specifically prepared for this purpose. Scoring is reported as above but as applied to TLR7.

| Compound | hTLR7 (inhibitory effect, antagonist score) |
| --- | --- |
| CN(C)CC/C=C1/c2ccccc2Sc2ccc(Cl)cc21.Cl [compound 348, Chlorprothixenehydrochloride] | 11 (compounds for which there was clear down regulation only at 50 μg/ml) |
| OCCN1CCN(CCCN2c3ccccc3Sc3ccc(Cl)cc32)CC1 [compound 125, Perphenazine] | — (compounds for which there was no clear down regulation even at 50 μg/ml) |
| CC(=O)Oc1cc(C)c(C2(c3cc(C(C)C)c(OC(C)=O)cc3C)OC(=O)c3ccccc32)cc1C(C)C [compound 1161] | 12 (compounds for which there was clear down regulation at 5 μg/ml and 50 μg/ml) |
| COC(=O)[C@H]1[C@H]2C[C@@H]3c4[nH]c5cc(OC)ccc5c4CCN3C[C@H]2C[C@@H](OC(=O)c2cc(OC)c(OC)c(OC)c2)[C@@H]1OC [compound 875, Reserpine] | — (compounds for which there was no clear down regulation even at 50 μg/ml) |
| Cl.Cl.OCCN1CCN(CC/C=C2/c3ccccc3Sc3ccc(C(F)(F)F)cc32)CC1 [compound 340, Flupentixoldihydrochloride cis-(Z)] | 11 (compounds for which there was clear down regulation only at 50 μg/ml) |
| CCOCCOC(=O)c1cc([N+](=O)[O-])cc2c1-c1c(cc([N+](=O)[O-])cc1[N+](=O)[O-])C2=C(C#N)C#N [compound 1241] | — (compounds for which there was no clear down regulation even at 50 μg/ml) |
| CCCCOC(=O)c1cc([N+](=O)[O-])cc2c1-c1cc(CO)c([NH+]([O-])O)cc1C2=C(C#N)C#N (centres unmarked) [compound 939] | 11 (compounds for which there was clear down regulation only at 50 μg/ml) |
| Cl.Cl.Fc1ccc(C(OCCN2CCN(CCCc3ccccc3)CC2)c2ccc(F)cc2)cc1 [compound 386, GBR 12909hydrochloride] | 11 (compounds for which there was clear down regulation only at 50 μg/ml) |
| COC(=O)c1cccc(C(O)(c2ccccc2)c2ccccc2)c1S(=O)(=O)C(C)(C)C [compound 1187] | 12 (compounds for which there was clear down regulation at 5 μg/ml and 50 μg/ml) |
| O=C1c2ccccc2C(=O)c2c1ccc1c(=O)n(-c3ccccc3)[nH]c21 [compound 1042] | 12 (compounds for which there was clear down regulation at 5 μg/ml and 50 μg/ml) |
| CCCC(C(=O)OCCN(CC)CC)(c1ccccc1)c1ccccc1.Cl [compound 778, Proadifen hydrochloride] | 11 (compounds for which there was clear down regulation only at 50 μg/ml) |
| CN(CCO)C(=O)c1cccc2c1-c1ccccc1C2=O [compound 890] | 11 (compounds for which there was clear down regulation only at 50 μg/ml) |
| CN1Cc2c(N)cccc2C(c2ccccc2)C1.O=C(O)/C=C\C(=O)O (centres unmarked) [compound 108, Nomifensine maleate] | — (compounds for which there was no clear down regulation even at 50 μg/ml) |
| Flunarizinehydrochloride [compound 312] | — (compounds for which there was no clear down regulation even at 50 μg/ml) |
| O=C1c2c(O)cccc2Cc2cccc(O)c21 [compound 43, Anthralin] | — (compounds for which there was no clear down regulation even at 50 μg/ml) |
| COC(=O)c1cccc2c1-c1ccccc1/C2=N/O [compound 904] | 12 (compounds for which there was clear down regulation at 5 μg/ml and 50 μg/ml) |

| Compound | hTLR7 (inhibitory effect, antagonist score) |
| --- | --- |
| Nc1cccc2c1C(=O)c1cccc(N)c1C2=O [compound 413, Anthraquinone,1,5-diamino] | — (compounds for which there was no clear down regulation even at 50 μg/ml) |
| O=C1Nc2ccccc2Oc2ccc([N+](=O)[O-])cc21 [compound 1352] | 13 (compounds for which there was clear down regulation at 0.5 μg/ml, 5 μg/ml, and 50 μg/ml) |
| O=c1[nH]c2ccccc2n1C1CCN(CCCC(c2ccc(F)cc2)c2ccc(F)cc2)CC1 [compound 308, Pimozide] | 11 (compounds for which there was clear down regulation only at 50 μg/ml) |
| CN1CCN(C(c2ccccc2)c2ccccc2)CC1.Cl [compound 510, Cyclizine hydrochloride] | — (compounds for which there was no clear down regulation even at 50 μg/ml) |
| COc1ccc2c(c1)N(CC(C)CN(C)C)c1ccccc1S2.O=C(O)/C=C\C(=O)O (centres unmarked) [compound 797, Methotrimeprazinemaleat salt] | — (compounds for which there was no clear down regulation even at 50 μg/ml) |
| Cc1cc(OC(=O)C2C3CCCCC32)c(C(C)C)cc1C1(c2cc(C(C)C)c(OC(=O)C3C4CCCCC43)cc2C)OC(=O)c2ccccc21 (centres unmarked) [compound 974] | 11 (compounds for which there was clear down regulation only at 50 μg/ml) |
| COc1ccc2[nH]c3c(c2c1)CCN=C3C [compound 621, Methoxy-6-harmalan] | — (compounds for which there was no clear down regulation even at 50 μg/ml) |
| c1ccc2c(c1)[nH]c1cnccc12 [compound 470, norharman] | 11 (compounds for which there was clear down regulation only at 50 μg/ml) |
| Maprotilinehydrochloride [compound 346] | 11 (compounds for which there was clear down regulation only at 50 μg/ml) |
| Prochlorperazinedimaleate [compound 399] | 12 (compounds for which there was clear down regulation at 5 μg/ml and 50 μg/ml) |
| CN(C)CCC=C1c2ccccc2CCc2ccccc21.Cl [compound 74, Amitryptilinehydrochloride] | 11 (compounds for which there was clear down regulation only at 50 μg/ml) |
| CN(C)CCCN1c2ccccc2Sc2ccc(Cl)cc21.Cl [compound 64, Chlorpromazinehydrochloride] | 11 (compounds for which there was clear down regulation only at 50 μg/ml) |
| O=C(O)c1cc(C(c2ccc(O)c(C(=O)O)c2)C(Cl)(Cl)Cl)ccc1O [compound 884] | 11 (compounds for which there was clear down regulation only at 50 μg/ml) |
| CN1CCC2C(C1)c1ccccc1N2Cc1ccccc1 (centres unmarked) [compound 455, Mebhydroline 1,5 naphtalenedisulfonate] | — (compounds for which there was no clear down regulation even at 50 μg/ml) |
| Cc1nccc2c1[nH]c1cc(O)ccc12.Cl [compound 612, Harmol hydrochloride monohydrate] | 11 (compounds for which there was clear down regulation only at 50 μg/ml) |
| Cl.Clc1ccc(C(OCCN2CCCCC2)c2ccccc2)cc1 (centres unmarked) [compound 793, Cloperastinehydrochloride] | 11 (compounds for which there was clear down regulation only at 50 μg/ml) |
